Results on eight compounds are retold here after PubChem BioAssay AID330 (DTP/NCI, 2004).

In the assay the test system is P388 leukemia ip, CD2F1 mice, survival T/C. Description: NCI In Vivo Anticancer Drug Screen. Data for tumor model P388 Leukemia (intraperitoneal) in CD2F1 (CDF1) mice. The note with it: endpoint: median survival time, higher = longer survival. Summed up: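 Mice carrying the transplanted tumor received test compound or vehicle. Survival was recorded in each group, and the value is the treated-group measurement divided by that of the vehicle-treated control group.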

“And” between values parts separate entries of the source, which are not always exact repeats. Equal values may be shown once. Inconclusive results and toxic doses are left out.

Consider `CC1(C)N=C(N)N=C(N)N1c1ccc(CCCCc2ccc(S(=O)(=O)F)cc2Cl)c(Cl)c1`, for which the T/C reads like this: (dose: 0.13 mg/kg/injection, schedule: Q03HX016 (ip), vehicle: other) 107 % of control; (dose: 0.25 mg/kg/injection, schedule: Q03HX016 (ip), vehicle: other) 116 % of control; (dose: 0.5 mg/kg/injection, schedule: Q03HX016 (ip), vehicle: other) 124 % of control; (dose: 1.0 mg/kg/injection, schedule: Q01DX005 (ip), vehicle: other) 111 % of control; (dose: 1.98 mg/kg/injection, schedule: Q01DX009 (ip), vehicle: saline with Tween-80) 165 % of control; (dose: 2.0 mg/kg/injection, schedule: Q01DX005 (ip), vehicle: other) 120 % of control. In addition, the T/C (dose: 2.0 mg/kg/injection, schedule: Q04DX002 (ip), vehicle: other) is 109 % of control; the T/C (dose: 2.82 mg/kg/injection, schedule: Q01DX009 (ip), vehicle: saline with Tween-80) was 168 % of control; the T/C (dose: 3.89 mg/kg/injection, schedule: Q01DX009 (ip), vehicle: Klucel (hydroxypropylcellulose) (HPC)) is 152 % of control and 163 % of control; the T/C (dose: 4.0 mg/kg/injection, schedule: Q01DX005 (ip), vehicle: other) is 121 % of control; the T/C (dose: 4.0 mg/kg/injection, schedule: Q04DX002 (ip), vehicle: other) is 118 % of control; the T/C (dose: 4.03 mg/kg/injection, schedule: Q01DX009 (ip), vehicle: saline with Tween-80) is 176 % of control. Moreover, the T/C is 176 % of control (dose: 5.76 mg/kg/injection, schedule: Q01DX009 (ip), vehicle: saline with Tween-80); 155 % of control (dose: 6.25 mg/kg/injection, schedule: Q01DX009 (ip), vehicle: distilled water + Tween-80); 163 % of control (dose: 6.25 mg/kg/injection, schedule: Q01DX009 (ip), vehicle: saline with Tween-80); 164 % of control (dose: 6.48 mg/kg/injection, schedule: Q01DX009 (ip), vehicle: Klucel (hydroxypropylcellulose) (HPC)); 119 % of control (dose: 8.0 mg/kg/injection, schedule: Q01DX005 (ip), vehicle: other); 116 % of control (dose: 8.0 mg/kg/injection, schedule: Q04DX002 (ip), vehicle: other). Moreover, the T/C was 197 % of control (dose: 8.23 mg/kg/injection, schedule: Q01DX009 (ip), vehicle: saline with Tween-80); 156 % of control (dose: 8.64 mg/kg/injection, schedule: Q01DX005 (ip), vehicle: Klucel (hydroxypropylcellulose) (HPC)); 166 % of control and 182 % of control (dose: 10.8 mg/kg/injection, schedule: Q01DX009 (ip), vehicle: Klucel (hydroxypropylcellulose) (HPC)); 212 % of control (dose: 11.76 mg/kg/injection, schedule: Q01DX009 (ip), vehicle: saline with Tween-80); 155 % of control (dose: 12.5 mg/kg/injection, schedule: Q01DX009 (ip), vehicle: distilled water + Tween-80); 118 % of control (dose: 16.0 mg/kg/injection, schedule: Q01DX005 (ip), vehicle: other). Also, the T/C reads like this: (dose: 16.0 mg/kg/injection, schedule: Q04DX002 (ip), vehicle: other) 106 % of control; (dose: 16.8 mg/kg/injection, schedule: Q01DX009 (ip), vehicle: other) 100 % of control; (dose: 16.8 mg/kg/injection, schedule: Q01DX009 (ip), vehicle: saline with Tween-80) 250 % of control; (dose: 18.0 mg/kg/injection, schedule: Q01DX009 (ip), vehicle: Klucel (hydroxypropylcellulose) (HPC)) 163 % of control and 214 % of control; (dose: 24.0 mg/kg/injection, schedule: Q01DX005 (ip), vehicle: Klucel (hydroxypropylcellulose) (HPC)) 164 % of control; (dose: 24.0 mg/kg/injection, schedule: Q01DX009 (ip), vehicle: saline with Tween-80) 256 % of control. In addition, the T/C is 160 % of control (dose: 25.0 mg/kg/injection, schedule: Q01DX009 (ip), vehicle: distilled water + Tween-80); 102 % of control (dose: 25.0 mg/kg/injection, schedule: Q01DX009 (oral), vehicle: saline with Tween-80); 163 % of control and 236 % of control (dose: 30.0 mg/kg/injection, schedule: Q01DX009 (ip), vehicle: Klucel (hydroxypropylcellulose) (HPC)); 111 % of control (dose: 32.0 mg/kg/injection, schedule: Q04DX002 (ip), vehicle: other); 228 % of control (dose: 34.28 mg/kg/injection, schedule: Q01DX009 (ip), vehicle: saline with Tween-80); 172 % of control (dose: 40.0 mg/kg/injection, schedule: Q01DX005 (ip), vehicle: Klucel (hydroxypropylcellulose) (HPC)). In addition, the T/C (dose: 50.0 mg/kg/injection, schedule: Q01DX009 (ip), vehicle: Klucel (hydroxypropylcellulose) (HPC)) was 87 % of control; the T/C (dose: 50.0 mg/kg/injection, schedule: Q01DX009 (oral), vehicle: saline with Tween-80) was 102 % of control; the T/C (dose: 75.0 mg/kg/injection, schedule: Q01DX009 (ip), vehicle: saline with Tween-80) is 195 % of control; the T/C (dose: 89.0 mg/kg/injection, schedule: Q04DX003 (ip), vehicle: saline with Tween-80) is 173 % of control; the T/C (dose: 100.0 mg/kg/injection, schedule: Q01DX009 (oral), vehicle: saline with Tween-80) was 107 % of control; the T/C (dose: 110.0 mg/kg/injection, schedule: Q01DX009 (ip), vehicle: saline with Tween-80) is 86 % of control. Besides, the T/C by setting is: (dose: 133.0 mg/kg/injection, schedule: Q04DX003 (ip), vehicle: saline with Tween-80) 188 % of control; (dose: 200.0 mg/kg/injection, schedule: Q01DX009 (oral), vehicle: saline with Tween-80) 105 % of control; (dose: 200.0 mg/kg/injection, schedule: Q04DX003 (ip), vehicle: saline with Tween-80) 307 % of control; (dose: 400.0 mg/kg/injection, schedule: Q01DX009 (oral), vehicle: saline with Tween-80) 99 % of control.

`CCOc1ccc(-n2c(=O)c(N=Nc3ccc(C)cc3)c(O)n(-c3ccc(Br)cc3)c2=S)cc1`: the T/C reads like this: (dose: 100.0 mg/kg/injection, schedule: Q04DX002 (ip), vehicle: saline with Tween-80) 96 % of control; (dose: 200.0 mg/kg/injection, schedule: Q04DX002 (ip), vehicle: saline with Tween-80) 94 % of control; (dose: 400.0 mg/kg/injection, schedule: Q04DX002 (ip), vehicle: saline with Tween-80) 90 % of control.

`CCc1cccc(CC)c1N1C(=O)C(=O)C(C(C)=O)C1=O` (centres undefined): the T/C (dose: 25.0 mg/kg/injection, schedule: Q01DX005 (ip), vehicle: saline with Tween-80) was 101 % of control; the T/C (dose: 50.0 mg/kg/injection, schedule: Q01DX005 (ip), vehicle: saline with Tween-80) is 99 % of control and 101 % of control; the T/C (dose: 100.0 mg/kg/injection, schedule: Q01DX005 (ip), vehicle: saline with Tween-80) is 101 % of control; the T/C (dose: 200.0 mg/kg/injection, schedule: Q01DX005 (ip), vehicle: saline with Tween-80) is 89 % of control.

`Cc1c[nH]c2nc(C)n(-c3ccc(F)cc3)c(=N)c12`: the T/C (dose: 6.25 mg/kg/injection, schedule: Q01DX005 (ip), vehicle: Klucel (hydroxypropylcellulose) (HPC)) is 100 % of control; the T/C (dose: 12.5 mg/kg/injection, schedule: Q01DX005 (ip), vehicle: Klucel (hydroxypropylcellulose) (HPC)) is 102 % of control; the T/C (dose: 25.0 mg/kg/injection, schedule: Q01DX005 (ip), vehicle: Klucel (hydroxypropylcellulose) (HPC)) was 100 % of control.

For the compound `CC(=O)c1cc(Cl)ccc1OCC(O)CNc1ccccc1C(=O)c1ccccc1` (centres undefined), the T/C by setting is: (dose: 60.0 mg/kg/injection, schedule: Q01DX005 (ip), vehicle: saline with Tween-80) 103 % of control; (dose: 120.0 mg/kg/injection, schedule: Q01DX005 (ip), vehicle: saline with Tween-80) 87 % of control; (dose: 240.0 mg/kg/injection, schedule: Q01DX005 (ip), vehicle: saline with Tween-80) 87 % of control.

For the compound `COc1ccc2c(=O)c3cc([N+](=O)[O-])ccc3n(C)c2c1`, the T/C (dose: 12.5 mg/kg/injection, schedule: Q01DX001 (ip), vehicle: saline with Tween-80) was 100 % of control; the T/C (dose: 25.0 mg/kg/injection, schedule: Q01DX001 (ip), vehicle: saline with Tween-80) is 97 % of control; the T/C (dose: 50.0 mg/kg/injection, schedule: Q01DX001 (ip), vehicle: saline with Tween-80) was 94 % of control; the T/C (dose: 100.0 mg/kg/injection, schedule: Q01DX001 (ip), vehicle: saline with Tween-80) was 94 % of control.

As to `CCOC(=O)/C(=C/c1ccco1)C(C)=O`, the T/C is 102 % of control (dose: 100.0 mg/kg/injection, schedule: Q01DX009 (ip), vehicle: Klucel (hydroxypropylcellulose) (HPC)) and 110 % of control (dose: 200.0 mg/kg/injection, schedule: Q01DX009 (ip), vehicle: Klucel (hydroxypropylcellulose) (HPC)).

Consider `CNC(=O)c1ccccc1O`, for which the T/C (dose: 50.0 mg/kg/injection, schedule: Q01DX009 (ip), vehicle: saline with Tween-80) is 103 % of control; the T/C (dose: 100.0 mg/kg/injection, schedule: Q01DX009 (ip), vehicle: saline with Tween-80) is 103 % of control; the T/C (dose: 200.0 mg/kg/injection, schedule: Q01DX009 (ip), vehicle: saline with Tween-80) is 95 % of control; the T/C (dose: 400.0 mg/kg/injection, schedule: Q01DX009 (ip), vehicle: saline with Tween-80) is 90 % of control.
